Measurements as given in patent US12404243B2, “Inhibitors of the Wnt/beta-catenin pathway” (The Regents of the University of California, priority 2018, dated 2025).

Key:
[1] = test system: Wnt/β-catenin-mediated transcription; assay: TCF-luciferase activity assay in 293T/Top/β-cat* cells; type: cell-based; details: summary of FIGS. 5A, B (293T/Top cells + LiCl) and 6A-C (293T/Top/β-cat* cells)
Method: (§1) 293T cells were maintained in DMEM medium containing 10% FBS and antibiotics (penicillin and streptomycin) at 37° C. in 5% CO2. Cells were stably infected with lentiviruses expressing the TopFlash reporter (293T/Top cells). The β-catenin mutant (β-cat*, the constitutively active mutant) construct was prepared using the retroviral expression vector by standard PCR. For viral transduction, retrovirus was obtained by co-trasfection of pQCXIP-β-cat* with packaging plasmids into 293T cells following the manufacturer's instructions. 293T/Top stable cells were seeded in 10 cm dish and incubated overnight. The next day cells were treated with retroviral particles. After 12 hours, the medium was replaced with fresh medium. 2 days post virus infection, the cells were selected with puromycin for 5 days to generate the 293T/Top/β-cat* stable cell line.
293 T/Top/β-cat* cells were plated at 40%-50% confluences in 12-well plate for 8 hours and then treated with Wnt inhibitors overnight. The luciferase activity of total cell lysates was measured using Luciferase Assay System (Promega). The related TCF-luciferase activity was normalized against the protein concentration of each cell lysate sample.

SW480 tumor xenografts = assay: Mouse xenografts of SW480 cells; type: in vivo, nude mice; details: SW480 xenografts, 10 mg/kg
Method: 5×10^5 of SW480 cells were injected subcutaneously into the flank area of 6-8-week-old nude mice. Tumor volume was measured by using an electronic caliper and calculated with the formula length×width^2×0.5, every 2 days. 12 days after inoculation, tumor bearing mice were administered Wnt inhibitors (dissolved in 10% DMSO+20% Cremophor EL+70% normal saline) via intraperitoneal injection for 5 days per week for 10 days at 10 mg/kg. Animal body weights were measured before drug treatments and at the end of the experiments. At the end of the experiments, animals were euthanized with carbon dioxide, followed by cervical dislocation. The tumors were dissected and weighed on the digital balance. We housed mice in pathogen-free facilities under 12-h light and 12-h dark cycle. The animal protocol and experimental procedures were approved by the Division of Laboratory Animal Medicine of UCLA and were in accordance with the US National Institute of Health guidelines.

[2] = test system: Wnt/β-catenin-mediated transcription; assay: Topflash reporter activity induced by LiCl in 293T/Top cells; type: cell-based; details: 20 mM LiCl, increasing concentration of JC001 (FIG. 5A)
Method: as §1

CN(C)CCC(=O)N1C/C(=C\c2ccccc2)C(=O)/C(=C/c2ccccc2)C1 [JC001, 3,5-Di((E)-benzylidene)-1-(3-(dimethylamino)propanoyl)piperidin-4-one]
Wnt/β-catenin-mediated transcription [1]: significantly inhibited | tumor volumes (SW480 tumor xenografts; day 12 to day 20 (FIG. 8A)): significantly reduced tumor volumes | actual tumor sizes at the end of treatment (SW480 tumor xenografts; day 12 to day 20 (FIG. 8B)): reduced the size of tumors recovered | actual tumor weights at the end of treatment (SW480 tumor xenografts; day 12 to day 20 (FIG. 8C)): significantly reduced the weight of tumors recovered | Topflash reporter activities induced by LiCl [2]: inhibit Topflash reporter activities
